The record followed here is PubChem BioAssay AID434987 (Southern Research Specialized Biocontainment Screening …, 2010).

Activity calls are given as the source filed them. The rule behind the calls is not given here.

This assay concerns M. tuberculosis H37Rv growth inhibition with meropenem. The assay is described as follows: dose response, H37Rv, with and without meropenem (AID 434987).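 Note: growth over 7 days at 37 °C before Alamar Blue read on day 9.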
Where [1] appears, read: M. tuberculosis H37Rv growth inhibition, measured here: IC50 without meropenem.
[2] abbreviates: M. tuberculosis H37Rv growth inhibition, measured here: IC90 without meropenem.
The mark [3] stands for this setting: measured here: IC90 with meropenem.

In the case of `Cc1oc(C(C)(C)C)cc1C(=O)Nc1ccc2c(c1)OCCO2`, the IC50 (commonly the concentration at which inhibition is half-maximal) is > 100 µM (inactive). In addition, the IC50 under setting [1] was above 100 µM. For the same compound, the IC90 – broadly, the point of the concentration-response curve where the effect stands at 90% – under setting [2] was above 100 µM. Besides, the IC90 under setting [3] is above 100 µM.
For `Cc1ccc(CSc2nccc(-c3c(C)nc4ccccn34)n2)cc1`, the IC50 is 7.91 µM. The compound further registered a 50% inhibitory concentration (IC50) under setting [1] of 22.2 µM. The compound also displayed an IC90 under setting [2] above 100 µM. Under setting [3], this compound displayed an IC90 above 100 µM.
Consider `C/C(=N\NC(=O)c1cc2c(s1)CCC(C)C2)c1ccc[nH]1` (stereo not drawn), for which the IC50 was 6.51 µM. This compound showed a 50% inhibitory concentration (IC50) under setting [1] above 100 µM. Under setting [2], this compound came in with an IC90 above 100 µM. This compound registered an IC90 under setting [3] above 100 µM.
Consider `CN1CCN(c2ccc(NC(=O)c3ccc(-c4cccc([N+](=O)[O-])c4)o3)cc2)CC1`, for which the IC50 is 5.87 µM (inactive). This compound also registered a half-inhibitory concentration (IC50) under setting [1] of 6.97 µM. The same compound had an IC90 under setting [2] of 18.1 µM. The IC90 under setting [3] was 6.71 µM.
On to `COC(=O)c1cccc(NC(=S)NCCC2=CCCCC2)c1`, for which the IC50 is > 100 µM (inactive). The IC50 under setting [1] is above 100 µM. The IC90 under setting [2] is above 100 µM. The IC90 under setting [3] is above 100 µM.
On to `CC(=O)NC(c1cc(Cl)c2cccnc2c1O)C1CC1` (stereo not drawn), for which the IC50 was 23.1 µM. Under setting [1], this compound gave a 50% inhibitory concentration (IC50) of 73.3 µM. Moreover, the IC90 under setting [2] is above 100 µM. The compound further returned a concentration for an effect of 90% (IC90) under setting [3] above 100 µM.
For `CC(C)CC(=O)NC(=S)Nc1ccc(N2CCN(C(=O)c3cccs3)CC2)cc1`, the IC50 is > 100 µM (inactive). The same compound registered an IC50 under setting [1] above 100 µM. The IC90 under setting [2] was above 100 µM. This compound gave an IC90 under setting [3] above 100 µM.
Consider `O=C(Oc1c(-c2ccccc2)c(=O)n2c3c(cccc13)CC2)c1ccc(F)cc1`, for which the IC50 was 6.19 µM. This compound registered an IC50 under setting [1] of 54.2 µM. For the same compound, under setting [2], the IC90 is above 100 µM. In addition, under setting [3], the IC90 came to 34 µM.
As for `O=C(NN1C(=O)C2C(C1=O)C1C=CC2C12CC2)c1ccncc1` (stereo not drawn), the IC50 was 12.3 µM. The same compound yielded an IC50 under setting [1] of 55.9 µM. Under setting [2], this compound gave an IC90 above 100 µM. In addition, the concentration for an effect of 90% (IC90) under setting [3] is 13.9 µM.
As for `COc1ccc(C(=O)/C=C/c2ccc(O)cc2)c(O)c1CC=C(C)C`, the IC50 is 54.3 µM (inactive). Under setting [1], this compound had an IC50 of 64.8 µM. Under setting [2], this compound returned an IC90 of 98.4 µM. The 90% effect concentration (IC90) under setting [3] worked out at 75.1 µM.
As to `Cc1cc(=O)[nH]c(N/N=C/c2c(O)n(-c3ccccc3)c(=O)c3ccccc23)n1`, the half-inhibitory concentration (IC50) is 1.87 µM. Also, the IC50 under setting [1] was 7.61 µM. The IC90 under setting [2] was above 100 µM. The IC90 under setting [3] is 13.6 µM.
Regarding `O=C(N[C@@H](Cc1ccccc1)C(=O)CCl)OCc1ccccc1`, the IC50 is 8.88 µM (inactive). This compound also gave an IC50 under setting [1] of 17.3 µM. This compound yielded a concentration for an effect of 90% (IC90) under setting [2] of 41.9 µM. Under setting [3], the IC90 worked out at 46.9 µM.
For the compound `CCCCCc1nnc(NC(=O)C2COc3ccccc3O2)s1` (stereo not drawn), the IC50 was 62.5 µM (inactive). In addition, under setting [1], the IC50 was above 100 µM. The compound further displayed an IC90 under setting [2] above 100 µM. This compound also registered an IC90 under setting [3] above 100 µM.
`CCOc1cc(CNCCN(C)C)c(Cl)cc1OCC(=O)NCCc1ccccc1`: the IC50 is > 100 µM (inactive). Also, the IC50 under setting [1] is above 100 µM. The compound also gave an IC90 under setting [2] above 100 µM. For the same compound, the IC90 under setting [3] was above 100 µM.
Take `Cc1ccc2c(Cl)cc(Cl)c(OCc3c(C)noc3C)c2n1`: the IC50 is 25.3 µM. Moreover, the IC50 under setting [1] was above 100 µM. Further, the concentration for an effect of 90% (IC90) under setting [2] was above 100 µM. Under setting [3], the IC90 was above 100 µM.
Turning to `Cc1ccc(-n2nnnc2Sc2nc([N+](=O)[O-])nn2C)cc1`, the IC50 is 10.2 µM. This compound also showed an IC50 under setting [1] of 51.4 µM. This compound returned an IC90 under setting [2] of 93.5 µM. Moreover, the concentration for an effect of 90% (IC90) under setting [3] is above 100 µM.
For `Cc1ccc(NC(=O)CSc2n[nH]c(-c3ccco3)n2)cc1`, the IC50 is > 100 µM (inactive). This compound also displayed an IC50 under setting [1] above 100 µM. The compound further registered an IC90 under setting [2] above 100 µM. Also, the IC90 under setting [3] was above 100 µM.
For `Cc1ccc(S(=O)(=O)Nc2cccc3cccnc23)c([N+](=O)[O-])c1`, the IC50 is 1.1 µM. The same compound returned an IC50 under setting [1] of 9.07 µM. Under setting [2], the IC90 is 12.4 µM. Moreover, the IC90 under setting [3] was found to be 4.7 µM.
Turning to `Cc1ccc(C(=O)Nc2c(C)cc(C)c3cccnc23)cc1`, the IC50 was 2.39 µM. The compound also came in with a half-maximal inhibitory concentration (IC50) under setting [1] of 10.3 µM. For the same compound, the IC90 under setting [2] is above 50 µM. Under setting [3], the IC90 came out at 10.5 µM.
For `O=C(COc1ccccc1)Nc1cc(C(F)(F)F)ccc1N1CCCC1`, in that order: 46.6 µM (inactive), above 100 µM, above 100 µM and above 100 µM.
On to `c1ccc2c(c1)Cn1nc(Cc3nc4c(s3)CCCC4)nc1-2`, for which the IC50 is 47.5 µM (inactive). For the same compound, under setting [1], the IC50 came out at 79.1 µM. The compound also yielded an IC90 under setting [2] above 100 µM. The compound further had an IC90 under setting [3] of 53 µM.
With `CN(c1ccc(C(=O)Nc2ccccc2Sc2ccccc2)cc1)S(C)(=O)=O`, the IC50 is > 100 µM (inactive). Under setting [1], the IC50 was above 100 µM. Under setting [2], the IC90 is above 100 µM. In addition, the IC90 under setting [3] was above 100 µM.
